This experiment concerns PD patient-derived skin fibroblasts. Put plainly: Autophagic flux in Pompe disease fibroblasts. The class given is cell-based, human. The method, then: FIG. 15 includes a micrograph and a vertical bar graph showing autophagic flux in PD patient-derived skin fibroblasts, serum starved and treated (or not) with 50 μM 144DG11 (indicated as comp. A).
144DG11 can activate autophagy in the lysosomal storage disease (LSD) Pompe disease (PD) in which autophagy is perturbed (FIG. 15). […] This ratio serves as the most accepted marker for autophagy and autophagic flux. […] These observations indicate that, as in the GSD APBD, 144DG11 can activate autophagy also in the typical LSD PD in which autophagy is disturbed.

On to `CC[C@]1(O)C[C@@H]2CN(CCc3c([nH]c4ccccc34)[C@@](C(=O)OC)(c3cc4c(cc3OC)N(C)[C@H]3[C@@](O)(C(=O)OC)[C@H](OC(C)=O)[C@]5(CC)C=CCN6CC[C@]43[C@@H]65)C2)C1` [vinblastine, reference compound], for which the “ratio of LC3II to LC3I” value is listed as “increased”.

The values are drawn from patent US20240139167A1, “LYSOSOME-ASSOCIATED MEMBRANE PROTEIN TARGETING COMPOUNDS AND USES THEREOF” (HADASIT MEDICAL RESEARCH SERVICES AND DEVELOPMENT LTD., priority 2021, published 2024).
